# Results from PMC7449217, “The FDA-Approved Drug Nelfinavir Inhibits Lytic Cell-Free but Not Cell-Associated Nonlytic Transmission of Human Adenovirus” (Antimicrobial Agents and Chemotherapy, 2020).
# Structures can show the parent of a compound that is named as a salt.
# Assays:
# uninfected A549 cells = assay: cellular impedance measurement (xCELLigence), nelfinavir toxicity; assay type: cell-based, human
# Method: (§1) Impedance-based assays were performed using the xCELLigence system (Roche Applied Science and ACEA Biosciences) as described previously ([152], [153]), according to the manufacturer’s instructions ([177]), in a cell culture environment (37°C, 5% CO2, and 95% humidity) in duplicates. The 16-well E plates have a gold-plated sensor array embedded in their glass bottom by which the electrical impedance across each well bottom is measured. The impedance per well, termed the cell index (CI), is recorded as a dimensionless quantity. The background CI was assessed following the addition of 50 μl supplemented medium to each well and equilibration in the incubation environment. After 30 min of equilibration, 9,000 A549 cells in 50 μl supplemented medium were added per well, and measurement was started.
# For the quantification of nelfinavir toxicity, 50 μl of the supernatant was removed 18 h later and replaced with 2-fold-concentrated nelfinavir or DMSO solvent as the control dilution in supplemented medium (final nelfinavir concentration of 0.4 to 100 μM in 100 μl/well). The control was supplemented medium. Impedance was recorded every 15 min over 5 days. The TC50 indicates the concentration of nelfinavir that caused a 50% impedance reduction compared to the solvent-treated cells. The TC50 was calculated by nonlinear regression of the solvent-normalized CI over the concentration of nelfinavir.
# A549 cells = assay: TC50, number of nuclei in noninfected treated cells; assay type: cell-based, human
# Method: (§2) Per 96-well plate, 15,000 A549 cells, 10,000 HeLa cells, 30,000 HBECs, 30,000 HCE cells, or 30,000 CMT-93 cells were seeded in 100 μl of the respective supplemented medium and allowed to settle for 1 h at room temperature (RT) prior to cell culture incubation at 37°C with 5% CO2 and 95% humidity. The following day, the medium was replaced with 50 μl of the respective virus stock dilution giving rise to 5 to 50 plaques per 96-well plate. Fifty microliters of nelfinavir to obtain a 0.1 to 50 μM final concentration or the DMSO solvent control was also added, both in supplemented medium. For each experiment, a noninfected, treated control was performed. For uphill plaque assays, the medium volume was increased to 150 μl with identical virus and drug concentrations. For wash-in/washout experiments, the virus was incubated on cells in supplemented medium for 1 h at 37°C, cells were washed with PBS, and a 100-μl drug dilution in supplemented medium was added. All experiments were performed in four technical replicates or as indicated. Cells were incubated under standard cell culture conditions. At the indicated times postinfection, the cells were fixed, and the nuclei were stained for 1 h at RT by the addition of 33 μl 16% (wt/vol) paraformaldehyde (PFA) and 4 μg/ml Hoechst 33342 (Sigma-Aldrich, St. Louis, MO, USA) in PBS. Cells were washed three times with PBS and stored in PBS supplemented with 0.02% N3 for infections with viruses harboring a GFP transgene. For wild-type (wt) viruses, cells were quenched in PBS supplemented with 50 mM NH4Cl, permeabilized using 0.2% (vol/vol) Triton X-100 in PBS, and blocked with 0.5% (wt/vol) bovine serum albumin (BSA) in PBS. […] Plates were imaged on either an IXM-XL or an IXM-C automated high-throughput fluorescence microscope (Molecular Devices, San Jose, CA, USA) using a 4× objective in wide-field mode. Hoechst staining was recorded in the 4′,6-diamidino-2-phenylindole (DAPI) channel, the fluorescein isothiocyanate (FITC)/GFP channel was acquired for viral GFP, and the tetramethyl rhodamine isothiocyanate (TRITC)/Texas Red channel was acquired for hexon immunofluorescence staining.
# (§3) The infection phenotype for each well was quantified using Plaque2.0 ([101]). The number of plaques was determined based on the infection signal (viral GFP or hexon immunofluorescence staining). […] Data were plotted, and the EC50 (infected and treated cells), the TC50 (noninfected, treated cells), as well as the corresponding standard errors (SE) were determined using curve fitting in GraphPad (version 8.1.2; GraphPad Software, Inc.) using three-parameter inhibitor concentration-versus-response nonlinear regression. The mean TI50 was calculated as the […] ratio of the means. The TI50 SE was calculated by error propagation.
# HAdV-C6 = assay: fluorescence-based plaque-forming assay, A549 cells; assay type: cell-based, human adenovirus
# Method: Per 96-well plate, 15,000 A549 cells, 10,000 HeLa cells, 30,000 HBECs, 30,000 HCE cells, or 30,000 CMT-93 cells were seeded in 100 μl of the respective supplemented medium and allowed to settle for 1 h at room temperature (RT) prior to cell culture incubation at 37°C with 5% CO2 and 95% humidity. The following day, the medium was replaced with 50 μl of the respective virus stock dilution giving rise to 5 to 50 plaques per 96-well plate. Fifty microliters of nelfinavir to obtain a 0.1 to 50 μM final concentration or the DMSO solvent control was also added, both in supplemented medium. For each experiment, a noninfected, treated control was performed. For uphill plaque assays, the medium volume was increased to 150 μl with identical virus and drug concentrations. For wash-in/washout experiments, the virus was incubated on cells in supplemented medium for 1 h at 37°C, cells were washed with PBS, and a 100-μl drug dilution in supplemented medium was added. All experiments were performed in four technical replicates or as indicated. Cells were incubated under standard cell culture conditions. At the indicated times postinfection, the cells were fixed, and the nuclei were stained for 1 h at RT by the addition of 33 μl 16% (wt/vol) paraformaldehyde (PFA) and 4 μg/ml Hoechst 33342 (Sigma-Aldrich, St. Louis, MO, USA) in PBS. Cells were washed three times with PBS and stored in PBS supplemented with 0.02% N3 for infections with viruses harboring a GFP transgene. For wild-type (wt) viruses, cells were quenched in PBS supplemented with 50 mM NH4Cl, permeabilized using 0.2% (vol/vol) Triton X-100 in PBS, and blocked with 0.5% (wt/vol) bovine serum albumin (BSA) in PBS. Cells were incubated with 381.7 ng/ml mouse anti-HAdV hexon protein antibody (Mab8052; Sigma-Aldrich, St. Louis, MO, USA) and subsequently stained using 2 μg/ml goat anti-mouse-Alexa Fluor 594 (catalog number A21203 or A32742; Thermo Fisher Scientific, Waltham, MA, USA). Plates were imaged on either an IXM-XL or an IXM-C automated high-throughput fluorescence microscope (Molecular Devices, San Jose, CA, USA) using a 4× objective in wide-field mode. Hoechst staining was recorded in the 4′,6-diamidino-2-phenylindole (DAPI) channel, the fluorescein isothiocyanate (FITC)/GFP channel was acquired for viral GFP, and the tetramethyl rhodamine isothiocyanate (TRITC)/Texas Red channel was acquired for hexon immunofluorescence staining.
# The infection phenotype for each well was quantified using Plaque2.0 ([101]). The number of plaques was determined based on the infection signal (viral GFP or hexon immunofluorescence staining). Nuclei stained with Hoechst were segmented by using CellProfiler ([178]). Infected nuclei were classified based on the median infection signal per nucleus in CellProfiler. Data were plotted, and the EC50 (infected and treated cells), the TC50 (noninfected, treated cells), as well as the corresponding standard errors (SE) were determined using curve fitting in GraphPad (version 8.1.2; GraphPad Software, Inc.) using three-parameter inhibitor concentration-versus-response nonlinear regression. The mean TI50 was calculated as the […] ratio of the means. The TI50 SE was calculated by error propagation.
# MAdV-1-pIX-FS2A-GFP = assay: fluorescence-based plaque-forming assay, CMT-93 cells; assay type: cell-based, mouse adenovirus 1
# Method: Per 96-well plate, 15,000 A549 cells, 10,000 HeLa cells, 30,000 HBECs, 30,000 HCE cells, or 30,000 CMT-93 cells were seeded in 100 μl of the respective supplemented medium and allowed to settle for 1 h at room temperature (RT) prior to cell culture incubation at 37°C with 5% CO2 and 95% humidity. The following day, the medium was replaced with 50 μl of the respective virus stock dilution giving rise to 5 to 50 plaques per 96-well plate. Fifty microliters of nelfinavir to obtain a 0.1 to 50 μM final concentration or the DMSO solvent control was also added, both in supplemented medium. For each experiment, a noninfected, treated control was performed. […] Plates were imaged on either an IXM-XL or an IXM-C automated high-throughput fluorescence microscope (Molecular Devices, San Jose, CA, USA) using a 4× objective in wide-field mode. Hoechst staining was recorded in the 4′,6-diamidino-2-phenylindole (DAPI) channel, the fluorescein isothiocyanate (FITC)/GFP channel was acquired for viral GFP, and the tetramethyl rhodamine isothiocyanate (TRITC)/Texas Red channel was acquired for hexon immunofluorescence staining.
# The infection phenotype for each well was quantified using Plaque2.0 ([101]). The number of plaques was determined based on the infection signal (viral GFP or hexon immunofluorescence staining). […] The mean TI50 was calculated as the EC50/TC50 ratio of the means. […]
# HAdV-A31 = assay: fluorescence-based plaque-forming assay, HCE cells; assay type: cell-based, human adenovirus; settings: HAdV-A31 in HCE
# Method: as §2, §3
# HAdV-C2-dE3B-GFP = assay: fluorescence-based plaque-forming assay, HCE cells; assay type: cell-based, human adenovirus
# Method: as §2, §3
# [1] = system: HAdV-C2-dE3B-GFP-infected A549 cells; assay: cellular impedance measurement (xCELLigence) of infected A549 cells, delay of cell death; assay type: cell-based, human; settings: 100 μM nelfinavir
# Method: as §1
# For the quantification of nelfinavir effects on the cytopathogenicity of HAdV-C2-dE3B-GFP compared to HAdV-C2-dE3B-GFP-dADP infection, 50 μl of the supernatant was removed 18 h later and replaced with nelfinavir- and virus-supplemented medium. […] The delay of infection-induced cytotoxicity was calculated as the time point at which the CI of the infected cells had decreased by 50% relative to its maximum. […]
smiles,measurement,setting,value
"Cc1c(O)cccc1C(=O)N[C@@H](CSc1ccccc1)[C@H](O)CN1C[C@H]2CCCC[C@H]2C[C@H]1C(=O)NC(C)(C)C [Nelfinavir, Nelfinavir mesylate]",toxicity in cell index (CI) profiles,"uninfected A549 cells; uninfected A549, up to 6.25 µM, more than 4 days of incubation",little signs of toxicity
same,median toxicity TC50 (cell impedance),"uninfected A549 cells; uninfected A549 cells, incubation up to 115 h, xCELLigence",25.7 µM
same,TC50,"A549 cells; human, 1 days",49.50 µM
same,TC50 (50% loss of cell nuclei),"A549 cells; human, 82 h",10.01 µM
same,TC50,"A549 cells; human, 6 days",19.08 µM
same,TC50,"A549 cells; noninfected A549, nuclei, 3 dpi, line HAdV-C5",11.91 µM
same,TI50 (TC50/IC50),"HAdV-C6; HAdV-C6 in A549, 3 dpi, Hexon",35.14
same,EC50,"HAdV-C6; Human adenovirus sp., HAdV-C6 in A549, fixation 3 dpi, read-out Hexon, plaque numbers",600 nM
same,TI50 (TC50/IC50),"MAdV-1-pIX-FS2A-GFP; MAdV-1-pIX-FS2A-GFP in CMT-93, 4 dpi, GFP",1.03
same,EC50,"MAdV-1-pIX-FS2A-GFP; Murine mastadenovirus A, CMT93",20.7 µM
same,TI50 (TC50/IC50),"HAdV-A31; 8 dpi, Hexon",1.08
same,EC50,"HAdV-A31; Human adenovirus sp., fixation 8 dpi, read-out Hexon, plaque numbers",18.1 µM
same,TI50 (TC50/IC50),"HAdV-C2-dE3B-GFP; HAdV-C2-dE3B-GFP in HCE, 5 dpi, GFP",54.04
same,EC50,"HAdV-C2-dE3B-GFP; Human adenovirus sp., HCE",550 nM
same,toxicity in impedance measurement of infected cells,[1],toxic
